Patent US8470825B2, “Diazabenzo[de] anthracen-3-one compounds and methods for inhibiting PARP” (Eisai Inc., priority 2005, dated 2013)
pIC50: −log10 of the molar value.

What was measured:
[1] = target: purified recombinant human PARP (Homo sapiens (Human), UniProt P09874); assay: PARP enzyme assay (IC50); assay type: biochemical; conditions: approximate IC50 values
Protocol: A convenient method to determine IC50 of a PARP inhibitor compound is a PARP assay using purified recombinant human PARP from Trevigan (Gaithersburg, MD), as follows: The PARP enzyme assay is set up on ice in a volume of 100 microliters consisting of 100 mM Tris-HCl (pH 8.0), 1 mM MgCl2, 28 mM KCl, 28 mM NaCl, 0.1 mg/ml of DNase I activated herring sperm DNA (Sigma, Mo.), 3.0 micromolar [3H]nicotinamide adenine dinucleotide (470 mci/mmole), 7 micrograms/ml PARP enzyme, and various concentrations of the compounds to be tested. The reaction is initiated by incubating the mixture at 25° C. After 15 minutes of incubation, the reaction is terminated by adding 500 microliters of ice cold 20% (w/v) trichloroacetic acid. The precipitate formed is transferred onto a glass fiber filter (Packard Unifilter-GF/B) and washed three times with ethanol. After the filter is dried, the radioactivity is determined by scintillation counting.

[2] = Sensory nerve conduction velocity (SNCV) in cisplatin-induced neuropathy in rats; assay type: in vivo; conditions: for SNCV at the end of the experiment, mean: tail nerve; for tail nerve conduction velocity impairment due to chronic cisplatin treatment: co-administration of compound 4i 40 mg/kg PO daily
Protocol: In this experiment, female Wistar Hannover rats were dosed with neuropathy inducing doses of cisplatin (2 mg/kg IP; twice a week for 4 weeks) with and without compound 4i (40 mg/kg PO daily). The rats were monitored for changes in sensory nerve conduction velocity (SNCV) in the caudal nerve at baseline (pre-cisplatin dosing) and after treatment. Additionally, dorsal root ganglion and sciatic nerve specimens with morphometric analysis on dorsal root ganglion neurons (somatic, nuclear and nucleolar size) were assessed histopathologically. At the beginning and end of the treatment period, each animal underwent the determination of SNCV in the tail as previously described in Cavaletti et al., “Protective Effects of glutathione on cisplatin neurotoxicity in rats,” Int. J. Radiation Oncology, 29, 771-776 (1994) and […] et al., “Low-Dose Glutathione administration in the prevention of cisplatin-induced peripheral neuropathy in rats,” Neuro toxicology, 15, 701-704 (1994). The antidromic SNCV in the tail nerve was assessed by placing recording ring electrodes distally in the tail, while the stimulating ring electrodes were placed 5 cm and 10 cm proximally with respect to the recording point. The latencies of the potentials recorded at the 2 sites after nerve stimulation were determined (peak-to-peak) and nerve conduction velocity was calculated accordingly. The differences in nerve conduction velocity, and in morphometric data obtained in dorsal root ganglia neurons during the experiment were statistically evaluated using the analysis of variance (ANOVA) and the Tukey-Kramer post-test (significance level set at p<0.05).

DRG neurons = assay: DRG neuron morphometry in cisplatin-induced neuropathy in rats; assay type: in vivo
Protocol: In this experiment, female Wistar Hannover rats were dosed with neuropathy inducing doses of cisplatin (2 mg/kg IP; twice a week for 4 weeks) with and without compound 4i (40 mg/kg PO daily). The rats were monitored for changes in sensory nerve conduction velocity (SNCV) in the caudal nerve at baseline (pre-cisplatin dosing) and after treatment. Additionally, dorsal root ganglion and sciatic nerve specimens with morphometric analysis on dorsal root ganglion neurons (somatic, nuclear and nucleolar size) were assessed histopathologically. Left L5 dorsal-root ganglia (DRG) of rats from each group were obtained from the sacrificed animals and processed according to previously reported protocols [Cavaletti et al.: […] et al]], resin embedded, and used for light and electron microscope observations and morphometry. On 1 μm thick semithin sections, morphometric determinations of the cross sectional area of the somata, nuclei and nucleoli of DRG neurons were performed using an image analysts software (Image J, NIH). The differences in nerve conduction velocity, and in morphometric data obtained in dorsal root ganglia neurons during the experiment were statistically evaluated using the analysis of variance (ANOVA) and the Tukey-Kramer post-test (significance level set at p<0.05).

[3] = system: Murine melanoma B16 cells; assay: Survival of mice bearing intracranial B16 melanoma, compound + temozolomide; assay type: in vivo; conditions: for MST: B16 melanoma in brain; for ILS vs TMZ: increase in lifespan
Protocol: The intracranial transplantation procedure was performed as described in Tentori L. et al., “Effects of single or split exposure of leukemic cells to temozolomide, combined with poly(ADP-ribose) polymerase inhibitors on cell growth, chromosomal aberrations and base excision repair components,” Cancer Chemother Pharmacol, 47, 361-9 (2001). Murine melanoma B16 cells (10^4) were injected intracranially (ic) into male B6D2F1 (C578L/6×DBA/2) mice. Histological evaluation of tumor growth in the brain was performed 1-5 days after tumor challenge, in order to determine the timing of treatment.
Compound 4i was dissolved in 70 mM PBS without potassium and administered po 1 h before temozolomide (TMZ). TMZ was dissolved in dimethyl-sulfoxide (40 mg/ml), diluted in saline (5 mg/ml) and administered ip at a dose of 100 mg/Kg for five days. Mice were treated with compound 4i by oral gavages once a day for five days, at doses of 10 or 40 mg/kg/day. Median survival times (MST) were determined and the percentage of increase in lifespan (ILS) was calculated as: {[MST (days) of treated mice/MST (days) of control mice]−1}×100. Efficacy of treatments was evaluated by comparing survival curves between treated and control groups.

B16 melanoma = assay: Subcutaneous B16 melanoma growth in mice, compound + temozolomide; assay type: in vivo; conditions: Compound 4i 40 mg/kg po + TMZ 100 mg/kg ip once a day for five days; s.c. tumor; day 9 to day 23
Protocol: The efficacy of TMZ±Compound 4i treatment was also evaluated on melanoma growing subcutaneously (s.c.) in mice. For this purpose B16 cells (2.5×10^5) were inoculated s.c. in the flank of the animal. Tumors were measured with calipers and volume calculated according to the formula: [(width)^2×length]/2. Drug treatment started 6 days after challenge, when the volume of tumor nodules reached 100-150 mm^3. Compound 4i (40 mg/kg po) was administered at 20 min before temozolomide (100 mg/kg ip) once a day for five days. Melanoma growth was monitored by measuring tumor nodules every 3 days for 3 weeks.

[4] = Tukey's multiple comparison test

Chain of purified recombinant human PARP (P09874 whole entry): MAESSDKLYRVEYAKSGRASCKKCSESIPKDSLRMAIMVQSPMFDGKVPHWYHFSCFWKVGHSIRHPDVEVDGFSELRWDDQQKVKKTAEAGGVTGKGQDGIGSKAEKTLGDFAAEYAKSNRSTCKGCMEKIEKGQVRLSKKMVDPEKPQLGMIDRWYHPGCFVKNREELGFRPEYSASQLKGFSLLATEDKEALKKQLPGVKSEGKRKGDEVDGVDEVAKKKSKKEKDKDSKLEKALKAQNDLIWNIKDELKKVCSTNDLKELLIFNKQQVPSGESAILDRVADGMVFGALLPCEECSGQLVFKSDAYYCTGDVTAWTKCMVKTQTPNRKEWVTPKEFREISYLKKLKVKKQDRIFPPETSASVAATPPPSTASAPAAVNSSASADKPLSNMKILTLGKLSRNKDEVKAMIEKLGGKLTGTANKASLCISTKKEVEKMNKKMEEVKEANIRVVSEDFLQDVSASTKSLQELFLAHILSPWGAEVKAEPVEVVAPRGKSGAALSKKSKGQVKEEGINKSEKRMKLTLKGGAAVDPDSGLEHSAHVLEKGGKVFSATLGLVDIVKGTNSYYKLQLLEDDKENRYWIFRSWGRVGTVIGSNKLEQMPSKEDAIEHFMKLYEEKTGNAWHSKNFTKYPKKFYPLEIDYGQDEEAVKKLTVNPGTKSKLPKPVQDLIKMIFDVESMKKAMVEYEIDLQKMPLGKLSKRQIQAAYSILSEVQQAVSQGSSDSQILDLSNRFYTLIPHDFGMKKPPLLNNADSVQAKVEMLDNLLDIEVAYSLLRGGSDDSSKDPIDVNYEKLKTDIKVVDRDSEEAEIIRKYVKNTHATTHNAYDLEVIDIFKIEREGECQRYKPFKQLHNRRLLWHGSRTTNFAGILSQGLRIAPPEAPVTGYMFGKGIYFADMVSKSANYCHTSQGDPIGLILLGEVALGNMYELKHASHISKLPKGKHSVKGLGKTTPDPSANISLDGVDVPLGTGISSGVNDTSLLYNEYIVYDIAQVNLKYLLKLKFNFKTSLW

With `O=c1[nH]nc2c3c(cccc13)Oc1ccc(CN3CCC4(CC3)OCCO4)cc1-2` [Compound 4n, 10-(1,4-Dioxa-8-aza-spiro[4.5]dec-8-ylmethyl)-2H-7-oxa-1,2-diaza-benzo[de]anthracen-3-one] the pIC50 [1] was 7.00.
With `[NH2][Pt]([NH2])([Cl])[Cl]` [CDDP, Cisplatin, reference compound] the “SNCV at the end of the experiment, mean” value ([2]; CDDP alone 2 mg/kg IP twice a week for 4 weeks) was 28.62 m/sec, the “Morphometry on DRG, Nu (nucleus), mean” value (DRG neurons; CDDP alone) was 114.3 μm^2 and the “Morphometry on DRG, Nucl (nucleolus), mean” value (DRG neurons; CDDP alone) was 7.651 μm^2. For the same compound, the “Morphometry on DRG, Soma, mean” value (DRG neurons; CDDP alone) was 683.4 μm^2.
With `O=c1[nH]nc2c3c(cccc13)Oc1ccc(CN3CCN(c4ncccn4)CC3)cc1-2` [Compound 4c, 10-(4-Pyrimidin-2-yl-piperazin-1-ylmethyl)-2H-7-oxa-1,2-diaza-benzo[de]anthracen-3-one] the pIC50 [1] was 7.52.
For `O=C1CN(Cc2ccc3c(c2)-c2n[nH]c(=O)c4cccc(c24)O3)CCN1` [Compound 4d, 10-(3-Oxo-piperazin-1-ylmethyl)-2H-7-oxa-1,2-diaza-benzo[de]anthracen-3-one], the pIC50 [1] was 7.70.
Work on `O=c1[nH]nc2c3c(cccc13)Oc1ccc(CN[C@H]3CC[C@H](O)CC3)cc1-2` [Compound 4r, 10-[(4-Hydroxy-cyclohexylamino)-methyl]-2H-7-oxa-1,2-diaza-benzo[de]anthracen-3-one] yielded a pIC50 [1] of 7.52.
With `O=c1[nH]nc2c3c(cccc13)Oc1ccc(CNCCN3CCOCC3)cc1-2` [Compound 4q, 10-[(2-Morpholin-4-yl-ethylamino)-methyl]-2H-7-oxa-1,2-diaza-benzo[de]anthracen-3-one] the pIC50 [1] was 7.30.
`O=c1[nH]nc2c3c(cccc13)Oc1ccc(CN3CCCC(O)C3)cc1-2` (stereo not shown) [Compound 4o, 10-(3-Hydroxy-piperidin-1-ylmethyl)-2H-7-oxa-1,2-diaza-benzo[de]anthracen-3-one] gave a pIC50 [1] of 7.30.
With `O=c1[nH]nc2c3c(cccc13)Oc1ccc(CN3CCC(O)CC3)cc1-2` [Compound 4i] the pIC50 [1] was 7.40, the MST ([3]; Compound 4i 10 mg/kg po + TMZ 100 mg/kg ip x 5 days) was 17 days and the “ILS vs TMZ” value ([3]; Compound 4i 10 mg/kg po + TMZ x 5) was 21%. For the same compound, the MST ([3]; Compound 4i 40 mg/kg po + TMZ 100 mg/kg ip x 5 days) was 21 days, the “ILS vs TMZ” value ([3]; Compound 4i 40 mg/kg po + TMZ x 5) was 50% and the “mean survival time vs TMZ as single agent” value ([3]; compound 4i + TMZ combination, mice bearing B16 melanoma) was “significantly higher”. For the same compound, the “growth of B16 melanoma vs TMZ alone” value (B16 melanoma) was “significantly reduced”, the “SNCV at the end of the experiment, mean” value ([2]; CDDP 2 mg/kg IP twice a week for 4 weeks + 4i 40 mg/kg PO daily) was 34.08 m/sec and the “SNCV Mean Diff., CDDP vs CDDP + 4i” value [2, 4] was −5.460. The “tail nerve conduction velocity impairment due to chronic cisplatin treatment” value [2] was “attenuate the deficits in nerve conduction velocity”, the “tail nerve conduction velocity impairment due to chronic cisplatin treatment” value ([2]; listed as compound 4i) was “statistically significant reduction” and the “Morphometry on DRG, Nu (nucleus), mean” value (DRG neurons; CDDP + 4i) was 121.8 μm^2. For the same compound, the “Morphometry on DRG, Nucl (nucleolus), mean” value (DRG neurons; CDDP + 4i) was 8.069 μm^2, the “Morphometry on DRG, Soma, mean” value (DRG neurons; CDDP + 4i) was 822.1 μm^2 and the “Nucleolus Mean Diff., CDDP vs CDDP + 4i” value (DRG neurons; [4]) was −0.4177. The “Soma Mean Diff., CDDP vs CDDP + 4i” value (DRG neurons; [4]) was −138.7 and the “effect on DRG neuron morphometry” value (DRG neurons; cisplatin-treated rats with compound 4i) was “significant effect only on the somatic size of DRG neurons”.
With `O=C1CCN(Cc2ccc3c(c2)-c2n[nH]c(=O)c4cccc(c24)O3)CC1` [Compound 4s, 10-(4-Oxo-piperidin-1-ylmethyl)-2H-7-oxa-1,2-diaza-benzo[de]anthracen-3-one] the pIC50 [1] was 6.92.
For `CC(C)N(Cc1ccc2c(c1)-c1n[nH]c(=O)c3cccc(c13)O2)C(C)C` [Compound 4k, 10-[(Diisopropylamino)-methyl]-2H-7-oxa-1,2-diaza-benzo[de]anthracen-3-one], the pIC50 [1] was 6.52.
`O=c1[nH]nc2c3c(cccc13)Oc1ccc(CN3CCC(CCO)CC3)cc1-2` [Compound 4m, 10-[4-(2-Hydroxy-ethyl)-piperidin-1-ylmethyl]-2H-7-oxa-1,2-diaza-benzo[de]anthracen-3-one] showed a pIC50 [1] of 7.00.
`O=c1[nH]nc2c3c(cccc13)Oc1ccc(CN3CCC(O)C3)cc1-2` (stereo not shown) [Compound 4l, 10-(3-Hydroxy-pyrrolidin-1-ylmethyl)-2H-7-oxa-1,2-diaza-benzo[de]anthracen-3-one] gave a pIC50 [1] of 7.00.
`O=c1[nH]nc2c3c(cccc13)Oc1ccc(CN3CC(O)C3)cc1-2` [Compound 4p, 10-(3-Hydroxy-azetidin-1-ylmethyl)-2H-7-oxa-1,2-diaza-benzo[de]anthracen-3-one] showed a pIC50 [1] of 7.52.
In the case of `COCCN1CCN(Cc2ccc3c(c2)-c2n[nH]c(=O)c4cccc(c24)O3)CC1` [Compound 4b, 10-[4-(2-Methoxy-ethyl)-piperazin-1-ylmethyl]-2H-7-oxa-1,2-diaza-benzo[de]anthracen-3-one], the pIC50 [1] was 7.70.
With `CCN(CC)CCN(C)Cc1ccc2c(c1)-c1n[nH]c(=O)c3cccc(c13)O2` [Compound 4h, 10-{[(2-Diethylamino-ethyl)-methyl-amino]-methyl}-2H-7-oxa-1,2-diaza-benzo[de]anthracen-3-one] the pIC50 [1] was 7.00.
For `CC(C)N1CCN(Cc2ccc3c(c2)-c2n[nH]c(=O)c4cccc(c24)O3)CC1` [Compound 4a, 10-(4-Isopropyl-piperazin-1-ylmethyl)2H-7-oxa-1,2-diaza-benzo[de]anthracen-3-one], the pIC50 [1] was 7.52.
For `CCN(CCO)Cc1ccc2c(c1)-c1n[nH]c(=O)c3cccc(c13)O2` [Compound 4j, 10-{[Ethyl-(2-hydroxy-ethyl)-amino]-methyl}-2H-7-oxa-1,2-diaza-benzo[de]anthracen-3-one], the pIC50 [1] was 7.00.
`Cn1nnc2c(C(N)=O)ncn2c1=O` [TMZ, temozolomide, reference compound] showed an MST ([3]; TMZ alone 100 mg/kg ip x 5) of 14 days.
